{
  "source": "ChEMBL document CHEMBL1201862",
  "about": "“PubChem BioAssay data set” (2004)",
  "test_in_all_cases": "growth of human tumour cells (NCI), 48 h",
  "key": {"DLD-1": {"tested_on": "DLD-1"}, "M19-MEL": {"tested_on": "M19-MEL"}, "XF498": {"tested_on": "XF498"}, "DMS-114": {"tested_on": "DMS-114"}, "HOP-18": {"tested_on": "HOP-18"}, "DMS-273": {"tested_on": "DMS-273"}, "RXF 631": {"tested_on": "RXF 631"}, "LXFL 529": {"tested_on": "LXFL 529"}, "SNB-78": {"tested_on": "SNB-78"}},
  "note": "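Briefly, cells in 96-well plates were exposed to five compound concentrations for 48 h, and endpoints were estimated by linear interpolation. Abbreviation: GI50, concentration required for 50% inhibition of growth.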 Activity calls are given as the source filed them. No stated cut-off is given here; in the data, active = GI50 up to about 1.1 µM and inactive = higher.",
  "data": [
    {"smiles": "Clc1ccc(Cc2nc3ccccc3s2)c(Cl)c1", "values": [
      {"measurement": "GI50", "setting": "DLD-1", "value": "15.3 µM (inactive)"},
      {"measurement": "GI50", "setting": "M19-MEL", "value": "15.7 µM (inactive)"},
      {"measurement": "GI50", "setting": "XF498", "value": "13.6 µM (inactive)"},
      {"measurement": "GI50", "setting": "DMS-114", "value": "17 µM (inactive)"},
      {"measurement": "GI50", "setting": "HOP-18", "value": "16 µM (inactive)"},
      {"measurement": "GI50", "setting": "DMS-273", "value": "18 µM (inactive)"},
      {"measurement": "GI50", "setting": "RXF 631", "value": "16.4 µM (inactive)"},
      {"measurement": "GI50", "setting": "LXFL 529", "value": "16.8 µM (inactive)"}
    ]},
    {"smiles": "CNc1ccc([N+](=O)[O-])c2c(NCCCN(C)C)ccnc12", "values": [
      {"measurement": "GI50", "setting": "M19-MEL", "value": "> 100 µM (inactive)"},
      {"measurement": "GI50", "setting": "XF498", "value": "> 100 µM (inactive)"},
      {"measurement": "GI50", "setting": "SNB-78", "value": "7.8 µM (inactive)"},
      {"measurement": "GI50", "setting": "DMS-114", "value": "> 100 µM (inactive)"},
      {"measurement": "GI50", "setting": "DMS-273", "value": "> 100 µM (inactive)"}
    ]},
    {"smiles": "CCCCOCN/C(N)=N/C#N", "values": [
      {"measurement": "GI50", "setting": "DLD-1", "value": "> 100 µM (inactive)"},
      {"measurement": "GI50", "setting": "XF498", "value": "> 100 µM (inactive)"},
      {"measurement": "GI50", "setting": "SNB-78", "value": "> 100 µM (inactive)"},
      {"measurement": "GI50", "setting": "DMS-114", "value": "> 100 µM (inactive)"},
      {"measurement": "GI50", "setting": "HOP-18", "value": "> 100 µM (inactive)"},
      {"measurement": "GI50", "setting": "DMS-273", "value": "68.7 µM (inactive)"},
      {"measurement": "GI50", "setting": "RXF 631", "value": "> 100 µM (inactive)"},
      {"measurement": "GI50", "setting": "LXFL 529", "value": "> 100 µM (inactive)"}
    ]},
    {"smiles": "O=[N+]([O-])c1cccc(C(O)/C(=N/Nc2ccccc2)C2Nc3ccc([N+](=O)[O-])cc3N=C2O)c1", "note": "(stereo unspecified)", "values": [
      {"measurement": "GI50", "setting": "DLD-1", "value": "> 100 µM (inactive)"},
      {"measurement": "GI50", "setting": "M19-MEL", "value": "45.4 µM (inactive)"},
      {"measurement": "GI50", "setting": "XF498", "value": "> 100 µM (inactive)"},
      {"measurement": "GI50", "setting": "SNB-78", "value": "> 100 µM (inactive)"},
      {"measurement": "GI50", "setting": "DMS-114", "value": "24.9 µM (inactive)"},
      {"measurement": "GI50", "setting": "DMS-273", "value": "36.8 µM (inactive)"},
      {"measurement": "GI50", "setting": "RXF 631", "value": "> 100 µM (inactive)"},
      {"measurement": "GI50", "setting": "LXFL 529", "value": "37.6 µM (inactive)"}
    ]},
    {"smiles": "CC(C)OCN1COCN/C1=N/C#N", "values": [
      {"measurement": "GI50", "setting": "DLD-1", "value": "26.4 µM (inactive)"},
      {"measurement": "GI50", "setting": "M19-MEL", "value": "> 100 µM (inactive)"},
      {"measurement": "GI50", "setting": "DMS-114", "value": "58.6 µM (inactive)"},
      {"measurement": "GI50", "setting": "HOP-18", "value": "> 100 µM (inactive)"},
      {"measurement": "GI50", "setting": "DMS-273", "value": "37.5 µM (inactive)"},
      {"measurement": "GI50", "setting": "RXF 631", "value": "> 100 µM (inactive)"},
      {"measurement": "GI50", "setting": "LXFL 529", "value": "> 100 µM (inactive)"}
    ]},
    {"smiles": "COc1ccc(-c2cn3ccsc3n2)cc1", "values": [
      {"measurement": "GI50", "setting": "DLD-1", "value": "> 100 µM (inactive)"},
      {"measurement": "GI50", "setting": "M19-MEL", "value": "> 100 µM (inactive)"},
      {"measurement": "GI50", "setting": "SNB-78", "value": "> 100 µM (inactive)"},
      {"measurement": "GI50", "setting": "DMS-114", "value": "47.8 µM (inactive)"},
      {"measurement": "GI50", "setting": "HOP-18", "value": "> 100 µM (inactive)"},
      {"measurement": "GI50", "setting": "DMS-273", "value": "> 100 µM (inactive)"},
      {"measurement": "GI50", "setting": "LXFL 529", "value": "> 100 µM (inactive)"}
    ]},
    {"smiles": "CCOC(=O)[C@@]12C(C)=CC(=O)O[C@]1(C)C1C(=O)NC(=O)C12", "note": "(stereo partly specified)", "values": [
      {"measurement": "GI50", "setting": "DLD-1", "value": "> 100 µM (inactive)"},
      {"measurement": "GI50", "setting": "SNB-78", "value": "> 100 µM (inactive)"},
      {"measurement": "GI50", "setting": "DMS-114", "value": "> 100 µM (inactive)"},
      {"measurement": "GI50", "setting": "HOP-18", "value": "31.4 µM (inactive)"},
      {"measurement": "GI50", "setting": "DMS-273", "value": "> 100 µM (inactive)"},
      {"measurement": "GI50", "setting": "RXF 631", "value": "> 100 µM (inactive)"},
      {"measurement": "GI50", "setting": "LXFL 529", "value": "> 100 µM (inactive)"}
    ]},
    {"smiles": "O=C(/C=C(\\O)C(=O)O)/C=C(\\O)c1ccccc1", "values": [
      {"measurement": "GI50", "setting": "DLD-1", "value": "> 4.65 µM (inactive)"},
      {"measurement": "GI50", "setting": "M19-MEL", "value": "> 4.65 µM (inactive)"},
      {"measurement": "GI50", "setting": "XF498", "value": "> 100 µM (inactive)"},
      {"measurement": "GI50", "setting": "SNB-78", "value": "> 100 µM (inactive)"},
      {"measurement": "GI50", "setting": "HOP-18", "value": "1 µM (active)"},
      {"measurement": "GI50", "setting": "DMS-273", "value": "> 4.65 µM (inactive)"},
      {"measurement": "GI50", "setting": "LXFL 529", "value": "> 4.65 µM (inactive)"}
    ]},
    {"smiles": "Cc1nn(C)c(=O)c2nn(-c3ccccc3)c(C)c12", "values": [
      {"measurement": "GI50", "setting": "DLD-1", "value": "> 100 µM (inactive)"},
      {"measurement": "GI50", "setting": "M19-MEL", "value": "> 100 µM (inactive)"},
      {"measurement": "GI50", "setting": "SNB-78", "value": "> 100 µM (inactive)"},
      {"measurement": "GI50", "setting": "DMS-114", "value": "> 100 µM (inactive)"},
      {"measurement": "GI50", "setting": "HOP-18", "value": "> 100 µM (inactive)"},
      {"measurement": "GI50", "setting": "DMS-273", "value": "> 100 µM (inactive)"},
      {"measurement": "GI50", "setting": "LXFL 529", "value": "> 100 µM (inactive)"}
    ]},
    {"smiles": "COc1cc(-c2oc3c(OC)c(OC)cc(O)c3c(=O)c2OC)ccc1O", "note": "[TERNATIN]", "values": [
      {"measurement": "GI50", "setting": "DLD-1", "value": "3.7 µM (inactive)"},
      {"measurement": "GI50", "setting": "XF498", "value": "2.2 µM (inactive)"},
      {"measurement": "GI50", "setting": "SNB-78", "value": "6.49 µM (inactive)"},
      {"measurement": "GI50", "setting": "DMS-114", "value": "> 100 µM (inactive)"},
      {"measurement": "GI50", "setting": "RXF 631", "value": "> 100 µM (inactive)"},
      {"measurement": "GI50", "setting": "LXFL 529", "value": "3.98 µM (inactive)"}
    ]},
    {"smiles": "O=[N+]([O-])c1ccc(C2=Nc3ccccc3[S+]([O-])C(c3ccccc3)C2)cc1", "note": "(stereo unspecified)", "values": [
      {"measurement": "GI50", "setting": "DLD-1", "value": "18.6 µM (inactive)"},
      {"measurement": "GI50", "setting": "M19-MEL", "value": "14.6 µM (inactive)"},
      {"measurement": "GI50", "setting": "XF498", "value": "21.4 µM (inactive)"},
      {"measurement": "GI50", "setting": "DMS-114", "value": "19.1 µM (inactive)"},
      {"measurement": "GI50", "setting": "HOP-18", "value": "24.9 µM (inactive)"},
      {"measurement": "GI50", "setting": "DMS-273", "value": "22.6 µM (inactive)"},
      {"measurement": "GI50", "setting": "RXF 631", "value": "17.1 µM (inactive)"},
      {"measurement": "GI50", "setting": "LXFL 529", "value": "13.5 µM (inactive)"}
    ]},
    {"smiles": "c1ccc(C2N3CCCCC3[C@@H]3c4[nH]c5ccccc5c4CCN23)nc1", "note": "(stereo partly specified)", "values": [
      {"measurement": "GI50", "setting": "DLD-1", "value": "> 100 µM (inactive)"},
      {"measurement": "GI50", "setting": "M19-MEL", "value": "> 100 µM (inactive)"},
      {"measurement": "GI50", "setting": "SNB-78", "value": "49.7 µM (inactive)"},
      {"measurement": "GI50", "setting": "DMS-114", "value": "27.4 µM (inactive)"},
      {"measurement": "GI50", "setting": "HOP-18", "value": "> 100 µM (inactive)"},
      {"measurement": "GI50", "setting": "DMS-273", "value": "> 100 µM (inactive)"},
      {"measurement": "GI50", "setting": "RXF 631", "value": "> 100 µM (inactive)"},
      {"measurement": "GI50", "setting": "LXFL 529", "value": "> 100 µM (inactive)"}
    ]}
  ]
}
